We go through four compounds from patent US12532883B2, “Powder compositions comprising salts of C4 to C10 oxocarboxylic acids and of unsaturated or aromatic C6 to C10 carboxylic acids” (Cosphatec GmbH, priority 2019, dated 2026).

≈ marks a conversion by molar mass, not a printed value. Read-outs that look alike come from different tables or passages of the source.

A short description of one data set: Hygroscopicity. The class given is physicochemical.
A further data set relates to Escherichia coli. The following applies: cited from earlier work.
The next data set has as its system Staphylococcus aureus. As to conditions: cited from earlier work.
The subject of a further data set is Pseudomonas aeruginosa. The following applies: cited from earlier work.
A further data set deals with Candida albicans. As to conditions: cited from earlier work.
The nature of a further data set: Solubility. The format is physicochemical. The following applies: for solubility: 20° C.
For data set [1] the following is noted: 20° C., Echa Registration Dossier; cited from earlier work.
The test system of another data set is Aspergillus brasiliensis. The following applies: cited from earlier work.

For the compound `COc1ccc(C(=O)[O-])cc1.[Na+]` [p-methoxybenzoate salt, sodium p-methoxybenzoate], the “hygroscopicity (in words)” value in the data set “Hygroscopicity” is “non-hygroscopic”.
As for `COc1ccc(C(=O)O)cc1` [p-methoxybenzoic acid], the MIC is given as 0.16% in the data set with Escherichia coli; 0.08% with Staphylococcus aureus; 0.16% in the data set with Pseudomonas aeruginosa; 0.04% in the data set on Candida albicans; 0.0025% in the data set with Aspergillus brasiliensis. The solubility (usually the concentration that dissolves in the medium under given conditions) came out at 50000 µg/mL (≈ 329000 µM) in the data set “Solubility” (organic solvent or mixture, ethanol, read-out: solubility in ethanol) and 300 µg/mL (≈ 1970 µM) in “Solubility” (water, read-out: solubility in water). In the data set “Solubility” (water), the “water solubility (in words)” value was “low water solubility”. For the same compound, in data set [1], the solubility in water is 200 µg/mL (≈ 1310 µM).
Take `CC(=O)CCC(=O)[O-].[Na+]` [sodium levulinate]: the “hygroscopicity (in words)” value in the data set “Hygroscopicity” is reported as “highly hygroscopic”.
Regarding `CC(=O)CCC(=O)O` [levulinic acid, 4-oxovaleric acid], the MIC is 0.20% with Escherichia coli, 0.35% in the data set on Staphylococcus aureus, 0.15% in the data set on Pseudomonas aeruginosa and 0.60% with Candida albicans. Also, in “Solubility” (water), the “water solubility (in words)” value is listed as “good water solubility”.
